Measurements reported in publication PMC7074381, “Investigating the Antiparasitic Potential of the Marine Sesquiterpene Avarone, Its Reduced Form Avarol, and the Novel Semisynthetic Thiazinoquinone Analogue Thiazoavarone” (Marine Drugs, 2020).
Where two headings read alike, the source gives them in different places.

Legend:
[1] = test system: L. tropica promastigotes (MHOM/IT/2012/ISS3130); assay: promastigote susceptibility MTT assay, L. tropica; type: cell-based; details: for IC50: Leishmania tropica, promastigote stage, 72 h, MTT, mean ± SD of three experiments; for SIp (L. tropica): SIp = IC50 HMEC-1/IC50 L. tropica promastigotes
Method: (§1) Promastigote stage of L. infantum strain MHOM/TN/80/IPT1 and L. tropica (MHOM/IT/2012/ISS3130) were cultured in Schneider’s Drosophila medium (Lonza) supplemented with 10% heat-inactivated fetal calf serum (HyClone) at 24 °C.
(§2) The complete medium used for antileishmanial activity assay was RPMI (EuroClone) supplemented with 10% heat-inactivated fetal calf serum (EuroClone), 20 mM Hepes, and 2 mM L-glutamine. To estimate the 50% inhibitory concentration (IC50), the MTT (3-[4.5-dimethylthiazol-2-yl]-2.5-diphenyltetrazolium bromide) method was used. Compounds were dissolved in DMSO and then diluted with medium to achieve the required concentrations. Drugs were placed in 96-well round-bottom microplates and seven serial dilutions made. Amphotericin B was used as the reference anti-leishmanial drug. Parasites were diluted in complete medium to 5 × 10^6 parasites/mL and 100 μL of the suspension was seeded into the plates, incubated at 24 °C for 72 h and then 20 µL of MTT solution (5 mg/mL) was added into each well for 3 h. The plates were then centrifuged, the supernatants discarded and the resulting pellets dissolved in 100 µL of lysing buffer consisting of 20% (w/v) of a solution of SDS (Sigma), 40% of N,N-dimethylformamide (Merck) in H2O. The absorbance was measured spectrophotometrically at a test wavelength of 550 nm and a reference wavelength of 650 nm. The results are expressed as IC50 which is the dose of compound necessary to inhibit parasite growth by 50%; each IC50 value is the mean ± standard deviation of separate experiments performed in duplicate.

[2] = test system: L. infantum promastigotes (strain MHOM/TN/80/IPT1); assay: promastigote susceptibility MTT assay, L. infantum; type: cell-based; details: for IC50: Leishmania infantum, promastigote stage, 72 h, MTT, mean ± SD of three experiments; for SIp (L. infantum): SIp = IC50 HMEC-1/IC50 L. infantum promastigotes
Method: as §1, §2

[3] = test system: L. infantum amastigotes; assay: intracellular amastigote susceptibility assay in THP-1 macrophages; type: cell-based; details: for IC50: Leishmania infantum, intracellular amastigotes in THP-1 macrophages, 72 h, mean of two experiments in triplicate; for SIa: SIa = IC50 HMEC-1/IC50 L. infantum amastigotes
Method: Cells were washed and infected with metacyclic L. infantum promastigotes at a macrophage/promastigote ratio of 1/10 for 24 h. Cell monolayers were then washed and incubated in the presence of test compounds for 72 h. Slides were fixed with methanol and stained with Giemsa. The percentage of infected macrophages in treated and non-treated cells was determined by light microscopy.

[4] = test system: THP-1 (human acute monocytic leukemia cells); assay: cytotoxicity MTT assay on THP-1 differentiated into macrophages; type: cell-based; details: PMA-differentiated macrophages, mean of two experiments in duplicate
Method: (§3) The long-term human microvascular endothelial cell line (HMEC-1) was maintained in MCDB 131 medium (Invitrogen, Milan, Italy) supplemented with 10% fetal calf serum (HyClone, Celbio, Milan, Italy), 10 ng/mL of epidermal growth factor,1 µg/ml of hydrocortisone, 2 mM glutamine and 20 mM Hepes buffer (EuroClone). For the cytotoxicity assays, HMEC-1 were plated at 10^5 cells/mL in 96-well flat bottom microplates. THP-1 cells were plated at 5 × 10^5 cells/mL in 96-well flat bottom microplates and treated with 0.1 μM PMA for 48 h to achieve differentiation into macrophages. Cells were then treated with serial dilutions of test compounds and cell proliferation evaluated using the MTT assay described for promastigotes. The results are expressed as IC50, which is the dose of compound necessary to inhibit cell growth by 50%.

[5] = test system: Pf gametocytes stage V 3D7elo1-pfs16-CBG99; assay: gametocyte susceptibility assay (luciferase viability); type: cell-based, P. falciparum; details: Plasmodium falciparum, 72 h, mean ± SD of three experiments
Method: The transgenic P. falciparum 3D7 strain 3D7elo1-pfs16-CBG99 expressing the Pyrophorus plagiophthalamus CBG99 luciferase under a gametocyte specific promoter was used in all the experiments. Parasites were cultured and gametocytes obtained as previously described. Late-stage gametocytes were exposed to compounds at day 11 after N-acetylglucosamine (NAG) addition. Gametocytes stages were counted in Giemsa stained smears and the percentage of stage V gametocytes was higher than 80%. Compounds were prepared by serial dilution, in 96-well plate, in complete medium. Plates were incubated for 72 h at 37 °C under 1% O2, 5% CO2, 94% N2 atmosphere. Luciferase activity was taken as measure of gametocytes viability, as previously described. Briefly, drug-treated gametocyte samples at 2% haematocrit were transferred to 96-well black microplates and D-luciferin (1 mM in citrate buffer 0.1 M, pH 5.5) was added at a 1:1 volume ratio. Luminescence measurements were performed after 10 min with 500 ms integration time using a Sinergy 4 (Biotek) microplate reader. The IC50 was extrapolated from the non-linear regression analysis of the concentration–response curve.

[6] = test system: P. falciparum D10 (CQ-sensitive) strain; assay: antiplasmodial pLDH drug susceptibility assay, asexual parasites, D10 strain; type: cell-based; details: for IC50: Plasmodium falciparum, read-out: D10 IC50; for SI D10: SI = IC50 HMEC-1/IC50 P. falciparum D10
Method: (§4) P. falciparum cultures were carried out according to Trager and Jensen with slight modifications. The CQ-sensitive strain D10 and the CQ-resistant strain W2 were maintained at 5% hematocrit (human type A-positive red blood cells) in RPMI 1640 (EuroClone, Celbio) medium with the addition of 1% AlbuMax (Invitrogen, Milan, Italy), 0.01% hypoxanthine, 20 mM Hepes, and 2 mM glutamine at 37 °C in a standard gas mixture (1% O2, 5% CO2, and 94% N2). […] Drugs were placed in 96-well flat-bottomed microplates and serial dilutions made. Asynchronous cultures with parasitaemia of 1%–1.5% and 1% final hematocrit were aliquoted into the plates and incubated for 72 h at 37 °C. Parasite growth was determined spectrophotometrically (OD650) by measuring the activity of the parasite lactate dehydrogenase (pLDH), according to a modified version of the method of Makler in control and drug-treated cultures. The antiplasmodial activity is expressed as 50% inhibitory concentrations (IC50); each IC50 value is the mean ± standard deviation of at least three separate experiments performed in duplicate.

[7] = test system: P. falciparum W2 (CQ-resistant) strain; assay: antiplasmodial pLDH drug susceptibility assay, asexual parasites, W2 strain; type: cell-based; details: for IC50: Plasmodium falciparum, read-out: W2 IC50; for SI W2: SI = IC50 HMEC-1/IC50 P. falciparum W2
Method: as §4

[8] = test system: HMEC-1 (human microvascular endothelial cells); assay: cytotoxicity MTT assay on HMEC-1; type: cell-based; details: mean ± SD of three experiments in duplicate
Method: as §3

[9] = test system: S. mansoni adult worm pairs; assay: adult worm pair viability assay (phenotypic score); type: cell-based; details: 20 μM, 7 days
Text: (§5) A Puerto Rican strain of S. mansoni was maintained by passage through albino Biomphalaria glabrata, as the intermediate host, and ICR (CD-1) outbred female mice as previously described. Female 4 to 7-week-old mice (Envigo, Udine, Italy) were infected with 200–400 double sex S. mansoni cercariae by the tail immersion technique. Adult pairs were harvested from mice 7–8 weeks after infection by reversed perfusion of the hepatic portal system and mesenteric veins. For the viability assays, 5 couples were incubated with the compounds in 3 mL DMEM complete tissue culture medium containing 10% FBS for up to 7 days and phenotypic score was assigned as previously described. For egg-treatment, 5 worm pairs were incubated for 48 h in 3 mL complete tissue culture medium; next the parasites were removed and vehicle (DMSO) or compounds 1–3 were added to each plate containing the eggs previously laid in vitro and observed for 72 h as previously reported. Briefly, images were recorded with a BX41 Olympus microscope and a bright field objective 10× served by a SPOT RT 220-3 Diagnostic Instrument Inc camera. Egg maturation/morphological score was assigned based on the Vogel and Prata’ staging system of egg maturation.

[10] = test system: S. mansoni in vitro laid eggs (IVLEs); assay: in vitro laid eggs (IVLEs) maturation/morphology assay; type: cell-based; details: 72 h
Text: as §5

[11] = asexual parasites, CQ-sensitive D10 strain, 72 h, pLDH, mean ± SD of three experiments in duplicate
[12] = asexual parasites, CQ-resistant W2 strain, 72 h, pLDH, mean ± SD of three experiments in duplicate

| SMILES | IC50 [1] [µM] | IC50 [2] [µM] | IC50 [3] [µM] | IC50 [4] [µM] | IC50 [5] [µM] | IC50 [6, 11] [µM] | SI D10 [6] | IC50 [7, 12] [µM] | SI W2 [7] | SIp (L. tropica) [1] | IC50 [8] [µM] | SIp (L. infantum) [2] | SIa [3] | IC50 ([6]; D10, 72 h) [µM] | IC50 ([7]; W2, 72 h) [µM] | survival of adult worm pairs [9] [%] | SIa ([3]; listed as avarol 3) | effect on egg maturation (IVLEs) ([10]; 5 μM) | effect on egg maturation (IVLEs) ([10]; 20 μM) | effect on adult stage viability [9] |
| --- | --- | --- | --- | --- | --- | --- | --- | --- | --- | --- | --- | --- | --- | --- | --- | --- | --- | --- | --- | --- |
| C[C@@H]1[C@H](O)[C@@H](C)/C=C/C=C/C=C/C=C/C=C/C=C/C=C/[C@H](O[C@@H]2O[C@H](C)[C@@H](O)[C@H](N)[C@@H]2O)C[C@@H]2O[C@](O)(C[C@@H](O)C[C@@H](O)[C@H](O)CC[C@@H](O)C[C@@H](O)CC(=O)O[C@H]1C)C[C@H](O)[C@H]2C(=O)O [Amphotericin B, reference compound] | 0.17 ± 0.04 | 0.2 ± 0.03 | 0.189 |  |  |  |  |  |  |  |  |  |  |  |  |  |  |  |  |  |
| CC1=CCC[C@H]2[C@](C)(CC3=CC(=O)C=CC3=O)[C@@H](C)CC[C@]12C [Avarone (1), avarone] | 20.3 ± 3.56 | 28.2 ± 0.32 | 7.64 | > 100 | 15.5 ± 5.26 | 2.74 ± 0.51 | 22.7 | 2.09 ± 0.52 | 29.8 | 3.1 | 62.2 ± 1.98 | 2.2 | 8.1 |  |  |  |  |  |  |  |
| CCN(CC)CCCC(C)Nc1ccnc2cc(Cl)ccc12 (stereo not drawn) [Chloroquine (CQ), Chloroquine, reference compound] |  |  |  |  |  |  |  |  |  |  |  |  |  | 0.04 | 0.54 |  |  |  |  |  |
| CN(C)c1ccc2nc3ccc(=[N+](C)C)cc-3sc2c1 [Methylene blue, reference compound] |  |  |  |  | 0.155 ± 0.05 |  |  |  |  |  |  |  |  |  |  |  |  |  |  |  |
| CC[C@@]1(O)C(=O)OCc2c1cc1n(c2=O)Cc2cc3ccccc3nc2-1 [Camptothecin, reference compound] |  |  |  |  |  |  |  |  |  |  | 0.018 |  |  |  |  |  |  |  |  |  |
| CC1=CCC[C@H]2[C@](C)(Cc3cc(O)ccc3O)[C@@H](C)CC[C@]12C [Avarol (3), avarol] | 7.08 ± 1.91 | 7.42 ± 0.27 | 3.19 | 31.8 | 9.3 ± 1.9 | 0.96 ± 0.24 | 38.4 | 1.1 ± 0.15 | 33.5 | 5.2 | 36.9 ± 5.79 | 5.0 | 11.6 |  |  | 20 | greater than 10 |  |  |  |
| CC1=CCC[C@H]2[C@](C)(CC3=CC(=O)C4=C(C3=O)S(=O)(=O)CCN4)[C@@H](C)CC[C@]12C [Thiazoavarone (2), thiazoavarone] | 9.52 ± 0.32 | 8.78 ± 0.26 | 4.99 | 7.41 | 15 ± 3.19 | 0.38 ± 0.15 | 8.7 | 0.21 ± 0.03 | 15.8 | 0.35 | 3.31 ± 1.53 | 0.38 | 0.67 |  |  |  |  | impairing eggs maturation | undeveloped and severely damaged eggs | poorly effective |
